Converted amounts (≈) assume the structure as drawn. Where two headings read alike, the source gives them in different places. Bridge positions count the residues as written; N and C are the ends. Square brackets hold non-standard residues; d marks the D form. Peptide text beside a SMILES is read from it. * marks the point of attachment. Ileψ(thiazoline)Cys = CC[C@H](C)[C@H](N)C1=N[C@H](C(=O)*)CS1; dOrn = NCCC[C@@H](N)C(=O)O; X1 = CC[C@H](C)CCCCC(=O)*; Dab = NCC[C@H](N)C(=O)O
Legend:
[1] = pH 7; cited from earlier work
[2] = system: C. pseudotuberculosis ΔlysX complement
[3] = system: C. pseudotuberculosis wild-type
Corynebacterium spp. = settings: cited from earlier work

CC1(C)S[C@@H]2[C@H](NC(=O)[C@H](N)c3ccccc3)C(=O)N2[C@H]1C(=O)O [Ampicillin]
Charge [1]: 0

CN[C@@H]1[C@@H](O[C@H]2O[C@H](CO)[C@@H](N)[C@H](O)[C@H]2O)OC2C[C@@H](N)[C@@H](O[C@H]3[C@H](O)[C@@H](O)[C@H](N)C[C@@H]3N)OC2[C@@H]1O (some centres unmarked) [Apramycin]
MIC ΔlysX complement [2]: 20 mg/L (≈ 37.1 µM)
Charge [1]: +5
MIC wt [3]: 20 mg/L (≈ 37.1 µM)

CC1(C)S[C@@H]2[C@H](NC(=O)[C@H](NC(=O)N3CCNC3=O)c3ccccc3)C(=O)N2[C@H]1C(=O)O [Azlocillin]
Charge [1]: −1
MIC wt [3]: 0.156 mg/L (≈ 0.338 µM)

CC[C@H](C)[C@H](N)C1=N[C@H](C(=O)N[C@@H](CC(C)C)C(=O)N[C@H](CCC(=O)O)C(=O)N[C@H](C(=O)N[C@H]2CCCCNC(=O)[C@H](CC(N)=O)NC(=O)[C@@H](CC(=O)O)NC(=O)[C@H](Cc3cnc[nH]3)NC(=O)[C@@H](Cc3ccccc3)NC(=O)[C@H]([C@@H](C)CC)NC(=O)[C@@H](CCCN)NC2=O)[C@@H](C)CC)CS1 [Bacitracin] ({Ileψ(thiazoline)Cys}-L[dE]IK[dOrn]I[dF]H[dD]N; lactam 4-C (inferred); N-terminus assumed)
Charge [1]: 0
MIC wt ([3]; 24 h): 6.4 mg/L (≈ 4.5 µM)

CO/N=C(\C(=O)N[C@@H]1C(=O)N2C(C(=O)O)=C(CSc3nc(=O)c(=O)[nH]n3C)CS[C@H]12)c1csc(N)n1 [Ceftriaxone]
Charge [1]: −2
MIC wt [3]: 0.625 mg/L (≈ 1.13 µM)

O=C(N[C@H](CO)[C@H](O)c1ccc([N+](=O)[O-])cc1)C(Cl)Cl [Chloramphenicol]
Charge [1]: 0
MIC wt [3]: 10 mg/L (≈ 30.9 µM)

CC[C@H]1OC(=O)[C@H](C)[C@@H](O[C@H]2C[C@@](C)(OC)[C@@H](O)[C@H](C)O2)[C@H](C)[C@@H](O[C@@H]2O[C@H](C)C[C@H](N(C)C)[C@H]2O)[C@](C)(O)C[C@@H](C)C(=O)[C@H](C)[C@@H](O)[C@]1(C)O [Erythromycin]
Charge [1]: +1
MIC wt [3]: 0.156 mg/L (≈ 0.213 µM)

CNC(C)C1CCC(N)C(OC2C(N)CC(N)C(OC3OCC(C)(O)C(NC)C3O)C2O)O1 (centres unmarked) [Gentamicin]
MIC ΔlysX complement [2]: 5 mg/L (≈ 10.5 µM)
Charge [1]: +5
MIC wt [3]: 5 mg/L (≈ 10.5 µM)
susceptibility breakpoint (Corynebacterium spp.): 4 µg/mL

NC[C@H]1O[C@H](O[C@H]2[C@H](O)[C@@H](O[C@H]3O[C@H](CO)[C@@H](O)[C@H](N)[C@H]3O)[C@H](N)C[C@@H]2N)[C@H](O)[C@@H](O)[C@@H]1O [Kanamycin]
MIC ΔlysX complement [2]: 10 mg/L (≈ 20.6 µM)
Charge [1]: +4
MIC wt [3]: 10 mg/L (≈ 20.6 µM)

CC[C@H](C)[C@H](NC(=O)CN)C(=O)NCC(=O)N[C@@H](C)C(=O)N[C@H](C(=O)N[C@@H](CC(C)C)C(=O)N[C@@H](CCCCN)C(=O)N[C@H](C(=O)N[C@@H](CC(C)C)C(=O)N[C@H](C(=O)N[C@H](C(=O)NCC(=O)N[C@@H](CC(C)C)C(=O)N1CCC[C@H]1C(=O)N[C@@H](C)C(=O)N[C@@H](CC(C)C)C(=O)N[C@H](C(=O)N[C@@H](CO)C(=O)N[C@@H](Cc1c[nH]c2ccccc12)C(=O)N[C@H](C(=O)N[C@@H](CCCCN)C(=O)N[C@@H](CCCNC(=N)N)C(=O)N[C@@H](CCCCN)C(=O)N[C@@H](CCCNC(=N)N)C(=O)N[C@@H](CCC(N)=O)C(=O)N[C@@H](CCC(N)=O)C(N)=O)[C@@H](C)CC)[C@@H](C)CC)[C@@H](C)O)[C@@H](C)O)C(C)C)C(C)C [Melittin]
MIC ΔlysX complement ([2]; 24 h): >40 mg/L
Charge [1]: +5
MIC wt ([3]; 24 h): >40 mg/L

Cc1onc(-c2ccccc2)c1C(=O)N[C@@H]1C(=O)N2[C@@H]1SC(C)(C)[C@@H]2C(=O)O [Oxacillin]
Charge [1]: −1
MIC wt [3]: 2.5 mg/L (≈ 6.23 µM)

CN(C)[C@@H]1C(O)=C(C(N)=O)C(=O)[C@@]2(O)C(O)=C3C(=O)c4c(O)cccc4[C@@](C)(O)[C@H]3[C@H](O)[C@@H]12 [Oxytetracycline]
Charge [1]: 0
MIC wt [3]: 0.625 mg/L (≈ 1.36 µM)

CC[C@H](C)CCCCC(=O)N[C@@H](CCN)C(=O)N[C@H](C(=O)N[C@@H](CCN)C(=O)N[C@H]1CCNC(=O)[C@H]([C@@H](C)O)NC(=O)[C@H](CCN)NC(=O)[C@H](CCN)NC(=O)[C@H](CC(C)C)NC(=O)[C@@H](Cc2ccccc2)NC(=O)[C@H](CCN)NC1=O)[C@@H](C)O [Polymyxin B] (X1-[Dab]T[Dab][Dab][Dab][dF]L[Dab][Dab]T; lactam 4-C (inferred); N-terminus assumed)
MIC ΔlysX complement ([2]; 24 h): 640 mg/L (≈ 532 µM)
Charge [1]: +5
MIC wt ([3]; 24 h): 640 mg/L (≈ 532 µM)

CN[C@@H]1[C@H](O)[C@H](NC)[C@H]2O[C@@]3(O)C(=O)C[C@@H](C)O[C@H]3O[C@@H]2[C@H]1O [Spectinomycin]
MIC ΔlysX complement [2]: 2.5 mg/L (≈ 7.52 µM)
Charge [1]: +1
MIC wt [3]: 2.5 mg/L (≈ 7.52 µM)

[H]/N=C(/N)N[C@H]1[C@H](O)[C@@H](O)[C@H](O[C@@H]2O[C@@H](C)[C@](O)(C=O)[C@H]2O[C@@H]2O[C@@H](CO)[C@H](O)[C@@H](O)[C@@H]2NC)[C@@H](N/C(N)=N\[H])[C@@H]1O [Streptomycin]
MIC ΔlysX complement [2]: 20 mg/L (≈ 34.4 µM)
Charge [1]: +3
MIC wt [3]: 20 mg/L (≈ 34.4 µM)

CN(C)[C@@H]1C(O)=C(C(N)=O)C(=O)[C@@]2(O)C(O)=C3C(=O)c4c(O)cccc4[C@@](C)(O)[C@H]3C[C@@H]12 [Tetracycline]
Charge [1]: −1
MIC wt [3]: 0.312 mg/L (≈ 0.702 µM)

CCCNC[C@]1(O)[C@H](C)O[C@@H](O[C@H]2[C@H](C)[C@@H](O[C@@H]3O[C@H](C)C[C@H](N(C)C)[C@H]3O)[C@](C)(O)C[C@@H](C)CN[C@H](C)[C@@H](O)[C@](C)(O)[C@@H](CC)OC(=O)[C@@H]2C)C[C@@]1(C)OC [Tulathromycin]
MIC ΔlysX complement [2]: 2.5 mg/L (≈ 3.1 µM)
Charge [1]: +3
MIC wt [3]: 2.5 mg/L (≈ 3.1 µM)

CN[C@H](CC(C)C)C(=O)N[C@H]1C(=O)N[C@@H](CC(N)=O)C(=O)N[C@H]2C(=O)N[C@H]3C(=O)N[C@H](C(=O)N[C@H](C(=O)O)c4cc(O)cc(O)c4-c4cc3ccc4O)[C@H](O)c3ccc(c(Cl)c3)Oc3cc2cc(c3O[C@@H]2O[C@H](CO)[C@@H](O)[C@H](O)[C@H]2O[C@H]2C[C@](C)(N)[C@H](O)[C@H](C)O2)Oc2ccc(cc2Cl)[C@H]1O [Vancomycin]
Charge [1]: +1
MIC wt ([3]; 24 h): 0.75 mg/L (≈ 0.518 µM)

Nisin
MIC ΔlysX complement [2]: 80 mg/L
Charge [1]: +4
MIC wt [3]: 80 mg/L
